Test results: US20110262564A1, “Treatment of Cancer with Selenium Nanoparticles” (priority 2010, published 2011)

Experiments:
[1] = tested on: androgen-dependent LNCaP cells; assay: CCK-8 cell viability assay, LNCaP; format: cell-based, human; details: 0-100 μM, 24 and 48 hours
Description: (§1) To determine the cell viability effect of nano-Se in human prostate cancer cells, androgen-dependent LNCaP cells and androgen-independent DU145 cells were treated with 0, 1, 5, 10, 50 and 100 μM of Nano-Se particle suspensions for 24 and 48 hrs respectively.
(§2) LNCaP (Lot#1735217), and DU-145 (Lot#1145858) human prostate cancer cell lines were purchased from the American Type Culture Collection (ATCC, Manassas, Va., USA). Cells were maintained in 1640 culture medium (Invitrogen Life Technologies, USA) supplemented with 10% (v/v) fetal bovine serum and antibiotics.
For cell viability assay, cells were seeded into 96-well plates at a density of 1×10^4 cells/well, and 40-50% confluent cells were subsequently treated with nano-Se nanoparticles (1 to 100 μM) or distilled water for 24 or 48 hrs respectively. Treated cells were then collected and measured by Cell Counting Kit-8 (CCK-8) system (Dojindo Laboratory, Kumamoto, Japan). Briefly, CCK-8 solution (10 μl per 100 ul of medium in each well) was added, the plates were then incubated at 37° C. for 1 hour, and the absorbance of each well was read at 450 nm using a microplate reader. Values were shown as means±SE of quadruplicated determinations of a representative experiment (repeated three times). Differences between groups were analyzed using Student's test with significance assumed at p<0.05. […]

[2] = tested on: human breast cancer cell line MCF-7 cells; assay: Cell viability assay, MCF-7; format: cell-based
Description: (§3) For cell viability assay, cells were seeded into 96-well plates at a density of 1×10^4 cells/well, and 40-50% confluent cells were subsequently treated with nano-Se nanoparticles (1 to 100 μM) or distilled water for 24 or 48 hrs respectively. Treated cells were then collected and measured by Cell Counting Kit-8 (CCK-8) system (Dojindo Laboratory, Kumamoto, Japan). Briefly, CCK-8 solution (10 μl per 100 ul of medium in each well) was added, the plates were then incubated at 37° C. for 1 hour, and the absorbance of each well was read at 450 nm using a microplate reader. Values were shown as means±SE of quadruplicated determinations of a representative experiment (repeated three times). Differences between groups were analyzed using Student's test with significance assumed at p<0.05. All statistical analyses were performed using Origin75 software.
(§4) In reference to FIGS. 3A and 3B, 4A and 4B, 5A and 5B, 6A and 6B, the effects of nano-Se nanoparticles on cell viability are compared to that of MSA in androgen dependent prostate cancer line LNCaP cells, androgen independent prostate cancer line DU145 cells, human breast cancer cell line MCF-7 cells, human lung carcinoma cell line A549 cells.
(§5) Cells were treated with 0-100 μM nano-Se nanoparticles or MSA for 24 and 48 hours. […] Differences between groups were analyzed using Student's test with significance assumed at p<0.05.

[3] = tested on: human lung carcinoma cell line A549 cells; assay: Cell viability assay, A549; format: cell-based
Description: as §3, §4, §5

[4] = tested on: androgen-independent DU145 cells; assay: CCK-8 cell viability assay, DU145; format: cell-based, human
Description: as §1, §2, §3
Cells were treated with 0-100 μM nano-Se nanoparticles or MSA for 24 and 48 hours. Cells were then collected and cell viabilities were assayed. The data shown are mean±standard of three samples for each treatment. Differences between groups were analyzed using Student's test with significance assumed at p<0.05.

[5] = target: T1, androgen receptor (Homo sapiens, UniProt P10275); assay: pGL3-PSA-luc androgen receptor luciferase reporter assay in HEK293; format: cell-based; details: PSA promoter construct, HEK293, 10 nM
T1 construct: the full length human wild type androgen receptor cDNA expression plasmid pAR0; expressed in transfected cells; host or cells: HEK293
T1 sequence (P10275 1-920): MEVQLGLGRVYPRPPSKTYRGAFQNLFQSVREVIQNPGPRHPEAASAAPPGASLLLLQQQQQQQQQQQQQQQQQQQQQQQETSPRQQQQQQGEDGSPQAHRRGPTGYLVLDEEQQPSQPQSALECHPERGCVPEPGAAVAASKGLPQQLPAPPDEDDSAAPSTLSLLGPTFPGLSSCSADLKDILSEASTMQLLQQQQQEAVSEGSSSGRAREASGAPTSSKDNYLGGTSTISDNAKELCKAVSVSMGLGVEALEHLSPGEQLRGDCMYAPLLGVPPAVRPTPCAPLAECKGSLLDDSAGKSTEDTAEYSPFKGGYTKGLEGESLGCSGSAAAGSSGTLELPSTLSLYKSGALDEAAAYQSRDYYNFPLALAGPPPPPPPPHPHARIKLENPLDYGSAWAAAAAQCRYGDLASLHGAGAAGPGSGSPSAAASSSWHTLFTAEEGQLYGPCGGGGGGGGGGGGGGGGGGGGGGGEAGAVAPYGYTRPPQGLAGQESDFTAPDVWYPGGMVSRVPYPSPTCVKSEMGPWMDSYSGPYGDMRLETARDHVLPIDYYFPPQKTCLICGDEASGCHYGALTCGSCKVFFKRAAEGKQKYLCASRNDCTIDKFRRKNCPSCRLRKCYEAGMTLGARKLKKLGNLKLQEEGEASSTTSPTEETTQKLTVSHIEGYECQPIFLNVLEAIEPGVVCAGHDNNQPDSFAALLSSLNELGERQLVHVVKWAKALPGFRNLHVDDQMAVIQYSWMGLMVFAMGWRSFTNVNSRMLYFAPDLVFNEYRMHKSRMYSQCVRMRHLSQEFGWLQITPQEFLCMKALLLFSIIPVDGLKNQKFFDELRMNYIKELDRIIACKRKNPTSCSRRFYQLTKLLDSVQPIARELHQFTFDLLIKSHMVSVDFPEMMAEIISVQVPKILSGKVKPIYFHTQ
Description: (§6) Both MMTV-luc and pGL3-PSA-luc plasmids contain Androgen Receptor binding site which recruits androgen receptor and its co-activator to recruit RNA Pol II to the promoter region.
(§7) Cells were then lysed and assayed for luciferase activity using Dual-Luciferase® Reporter Assay System (Promega, Madison, Wis., USA), the experiment was performed in triplicate and repeated at least four times.

[6] = target: T1, androgen receptor; assay: MMTV-luc androgen receptor luciferase reporter assay in HEK293; format: cell-based; details: MMTV promoter construct, HEK293, 10 nM
Description: as §6, §7

Compound | effect on cell viability [1] | effect on cell viability ([2]; MCF-7, 0-100 μM, 24 and 48 hours, dose and time-dependent) | potency in decreasing cell viability, MSA versus nano-Se ([2]; MCF-7, 24 and 48 hours) | effect on cell viability ([3]; A549, 0-100 μM, 24 and 48 hours, dose and time-dependent) | potency in decreasing cell viability, MSA versus nano-Se ([3]; A549, 24 and 48 hours) | effect on cell viability ([4]; DU145, 0-100 μM, 24 and 48 hours, dose and time-dependent) | effect on cell viability, MSA versus nano-Se ([4]; DU145, 24 hour treatment, all measured concentrations) | effect on cell viability, nano-Se versus MSA ([4]; DU145, 48 hour treatment) | androgen receptor dependent promoter activity (luciferase) [5] | androgen receptor dependent promoter activity (luciferase) [6]
C[Se](=O)O [MSA, Methylseleninic acid] | decreased cell viability | decreased cell viability | more potent in decreasing cell viability | decreased cell viability | more potent in decreasing cell viability | decreased cell viability | more significant | comparable |  | 
C[C@]1(O)CC[C@H]2[C@@H]3CCC4=CC(=O)CCC4=C3C=C[C@@]21C [R1881] |  |  |  |  |  |  |  |  | induced androgen receptor dependent promoter activity | induced androgen receptor dependent promoter activity
